“Also recorded” adds a separate entry of the source.
Tested on: NOD-SCID mice bearing isogenic PSMA^+ PC3 PIP and PSMA^− PC3 flu tumors
Assay: Biodistribution in tumor-bearing mice
Conditions: for PSMA^+ PIP tumor uptake: PSMA+ PC3 PIP xenograft; for PSMA^− flu tumor uptake: PSMA− PC3 flu xenograft
[1] = 30 min postinjection, tail vein, ± SD, n = 3–4
[2] = 60 min postinjection, tail vein, ± SD, n = 3–4
[3] = 120 min postinjection, tail vein, ± SD, n = 3–4
[4] = 240 min postinjection, tail vein, ± SD, n = 3–4

O=C(O)CCC(NC(=O)NC(CCCCNC(=O)CCc1cn(CC[18F])nn1)C(=O)O)C(=O)O (stereo not shown) [[^18F]YC-88, 2-[3-(1-carboxy-5-{3-[1-(2-[^18F]fluoroethyl)-1H-1,2,3-triazol-yl]propanamido}pentyl)ureido]-pentanedioic acid]
difference in PSMA^+ PC3 PIP tumor uptake between [^18F]YC-88 and [^18F]DCFPyL (30 min, P > 0.05): not statistically significant
salivary gland uptake compared to [^18F]DCFPyL (30 min and 1 h postinjection): significantly less; also recorded: significantly lower
PIP/flu uptake ratio (30 min postinjection): 70
PIP/kidney uptake ratio (tumor-to-kidney) (30 min postinjection): 0.9
bladder (empty) uptake [1]: 17.90 ± 14.18 % ID/g
blood uptake [1]: 1.02 ± 0.43 % ID/g
bone uptake [1]: 0.40 ± 0.16 % ID/g
fat uptake [1]: 0.33 ± 0.08 % ID/g
heart uptake [1]: 0.36 ± 0.18 % ID/g
kidney uptake [1]: 44.08 ± 12.52 % ID/g
large intestine uptake [1]: 0.87 ± 0.85 % ID/g
liver uptake [1]: 1.70 ± 0.21 % ID/g
lung uptake [1]: 1.09 ± 0.31 % ID/g
muscle uptake [1]: 0.22 ± 0.07 % ID/g
pancreas uptake [1]: 0.44 ± 0.13 % ID/g
salivary gland uptake [1]: 0.85 ± 0.39 % ID/g
small intestine uptake [1]: 0.37 ± 0.11 % ID/g
spleen uptake [1]: 1.67 ± 0.46 % ID/g
stomach uptake [1]: 0.41 ± 0.14 % ID/g
PIP/flu uptake ratio (60 min postinjection): 170
PIP/kidney uptake ratio (tumor-to-kidney) (60 min postinjection): 2.4
bladder (empty) uptake [2]: 7.78 ± 4.15 % ID/g
blood uptake [2]: 0.29 ± 0.08 % ID/g
bone uptake [2]: 0.16 ± 0.04 % ID/g
fat uptake [2]: 0.31 ± 0.18 % ID/g
heart uptake [2]: 0.18 ± 0.06 % ID/g
kidney uptake [2]: 20.08 ± 8.09 % ID/g
large intestine uptake [2]: 0.27 ± 0.14 % ID/g
liver uptake [2]: 1.73 ± 0.14 % ID/g
lung uptake [2]: 0.49 ± 0.24 % ID/g
muscle uptake [2]: 0.11 ± 0.06 % ID/g
pancreas uptake [2]: 0.16 ± 0.06 % ID/g
salivary gland uptake [2]: 0.31 ± 0.07 % ID/g
small intestine uptake [2]: 0.23 ± 0.04 % ID/g
spleen uptake [2]: 0.69 ± 0.23 % ID/g
stomach uptake [2]: 0.34 ± 0.20 % ID/g
PIP/flu uptake ratio (120 min postinjection): 243
PIP/kidney uptake ratio (tumor-to-kidney) (120 min postinjection): 4
bladder (empty) uptake [3]: 4.33 ± 2.64 % ID/g
blood uptake [3]: 0.28 ± 0.23 % ID/g
bone uptake [3]: 0.37 ± 0.36 % ID/g
fat uptake [3]: 0.17 ± 0.10 % ID/g
heart uptake [3]: 0.07 ± 0.02 % ID/g
kidney uptake [3]: 10.20 ± 2.76 % ID/g
large intestine uptake [3]: 0.31 ± 0.13 % ID/g
liver uptake [3]: 1.74 ± 0.23 % ID/g
lung uptake [3]: 0.22 ± 0.10 % ID/g
muscle uptake [3]: 0.10 ± 0.03 % ID/g
pancreas uptake [3]: 0.11 ± 0.06 % ID/g
salivary gland uptake [3]: 0.25 ± 0.07 % ID/g
small intestine uptake [3]: 0.18 ± 0.07 % ID/g
spleen uptake [3]: 0.29 ± 0.16 % ID/g
stomach uptake [3]: 0.12 ± 0.07 % ID/g
PIP/flu uptake ratio (240 min postinjection): 368
PIP/kidney uptake ratio (tumor-to-kidney) (240 min postinjection): 6.7
bladder (empty) uptake [4]: 1.22 ± 0.89 % ID/g
blood uptake [4]: 0.12 ± 0.04 % ID/g
bone uptake [4]: 0.11 ± 0.03 % ID/g
fat uptake [4]: 0.10 ± 0.04 % ID/g
heart uptake [4]: 0.04 ± 0.01 % ID/g
kidney uptake [4]: 3.84 ± 0.29 % ID/g
large intestine uptake [4]: 0.23 ± 0.09 % ID/g
liver uptake [4]: 1.45 ± 0.14 % ID/g
lung uptake [4]: 0.13 ± 0.02 % ID/g
muscle uptake [4]: 0.06 ± 0.03 % ID/g
pancreas uptake [4]: 0.07 ± 0.02 % ID/g
salivary gland uptake [4]: 0.14 ± 0.02 % ID/g
small intestine uptake [4]: 0.14 ± 0.03 % ID/g
spleen uptake [4]: 0.15 ± 0.05 % ID/g
stomach uptake [4]: 0.06 ± 0.02 % ID/g
PSMA^+ PIP tumor uptake [1]: 40.31 ± 5.13 % ID/g
PSMA^+ PIP tumor uptake [2]: 47.58 ± 5.19 % ID/g
PSMA^+ PIP tumor uptake [3]: 41.29 ± 4.22 % ID/g
PSMA^+ PIP tumor uptake [4]: 25.74 ± 7.33 % ID/g
PSMA^− flu tumor uptake [1]: 0.58 ± 0.23 % ID/g
PSMA^− flu tumor uptake [2]: 0.28 ± 0.13 % ID/g
PSMA^− flu tumor uptake [3]: 0.17 ± 0.03 % ID/g
PSMA^− flu tumor uptake [4]: 0.07 ± 0.01 % ID/g
kidney, liver, and spleen uptake compared to [^18F]DCFPyL (all time points, two-tailed Student's t test): significantly lower
difference in PSMA^− PC3 flu tumor uptake between the two radiotracers (any time): no significant difference
bone uptake (at all time points): < 1 % ID/g

O=C(O)CCC(NC(=O)NC(CCCCNC(=O)c1ccc([18F])nc1)C(=O)O)C(=O)O (stereo not shown) [[^18F]DCFPyL, 2-(3-{1-carboxy-5-[(6-[^18F]fluoropyridine-3-carbonyl)-amino]-pentyl}-ureido)-pentanedioic acid, reference compound]
PSMA^+ PC3 PIP tumor uptake compared to [^18F]YC-88 (1, 2, and 4 h): significantly higher
blood uptake [1]: 1.67 ± 0.54 % ID/g
bone uptake [1]: 1.00 ± 0.51 % ID/g
fat uptake [1]: 1.42 ± 0.51 % ID/g
heart uptake [1]: 0.84 ± 0.16 % ID/g
kidney uptake [1]: 135.28 ± 9.75 % ID/g
large intestine uptake [1]: 1.17 ± 0.06 % ID/g
liver uptake [1]: 3.54 ± 0.20 % ID/g
muscle uptake [1]: 0.54 ± 0.05 % ID/g
salivary gland uptake [1]: 2.60 ± 0.60 % ID/g
small intestine uptake [1]: 0.83 ± 0.03 % ID/g
spleen uptake [1]: 10.67 ± 1.68 % ID/g
stomach uptake [1]: 0.90 ± 0.14 % ID/g
blood uptake [2]: 0.72 ± 0.22 % ID/g
fat uptake [2]: 0.84 ± 0.44 % ID/g
heart uptake [2]: 0.32 ± 0.09 % ID/g
large intestine uptake [2]: 0.49 ± 0.05 % ID/g
liver uptake [2]: 3.48 ± 0.21 % ID/g
lung uptake [2]: 1.41 ± 0.25 % ID/g
muscle uptake [2]: 0.36 ± 0.18 % ID/g
pancreas uptake [2]: 0.61 ± 0.21 % ID/g
salivary gland uptake [2]: 1.57 ± 0.18 % ID/g
small intestine uptake [2]: 0.56 ± 0.12 % ID/g
spleen uptake [2]: 5.61 ± 0.56 % ID/g
stomach uptake [2]: 0.50 ± 0.10 % ID/g
bladder (empty) uptake [3]: 11.40 ± 9.95 % ID/g
blood uptake [3]: 0.23 ± 0.05 % ID/g
bone uptake [3]: 0.37 ± 0.05 % ID/g
fat uptake [3]: 0.15 ± 0.02 % ID/g
kidney uptake [3]: 61.23 ± 20.36 % ID/g
liver uptake [3]: 3.08 ± 0.13 % ID/g
lung uptake [3]: 0.41 ± 0.09 % ID/g
muscle uptake [3]: 0.08 ± 0.02 % ID/g
pancreas uptake [3]: 0.23 ± 0.05 % ID/g
salivary gland uptake [3]: 0.43 ± 0.15 % ID/g
small intestine uptake [3]: 0.55 ± 0.50 % ID/g
spleen uptake [3]: 1.64 ± 0.40 % ID/g
stomach uptake [3]: 0.21 ± 0.06 % ID/g
bladder (empty) uptake [4]: 16.85 ± 10.15 % ID/g
blood uptake [4]: 0.11 ± 0.00 % ID/g
bone uptake [4]: 0.71 ± 0.40 % ID/g
fat uptake [4]: 0.10 ± 0.05 % ID/g
heart uptake [4]: 0.06 ± 0.01 % ID/g
kidney uptake [4]: 19.36 ± 2.32 % ID/g
large intestine uptake [4]: 0.83 ± 1.00 % ID/g
liver uptake [4]: 2.30 ± 0.28 % ID/g
lung uptake [4]: 0.16 ± 0.02 % ID/g
muscle uptake [4]: 0.07 ± 0.04 % ID/g
pancreas uptake [4]: 0.09 ± 0.02 % ID/g
salivary gland uptake [4]: 0.32 ± 0.22 % ID/g
small intestine uptake [4]: 0.16 ± 0.04 % ID/g
spleen uptake [4]: 0.55 ± 0.11 % ID/g
stomach uptake [4]: 0.09 ± 0.03 % ID/g
PSMA^+ PIP tumor uptake [1]: 64.85 ± 19.22 % ID/g
PSMA^+ PIP tumor uptake [2]: 84.29 ± 12.29 % ID/g
PSMA^+ PIP tumor uptake [3]: 69.55 ± 1.71 % ID/g
PSMA^+ PIP tumor uptake [4]: 74.34 ± 7.28 % ID/g
PSMA^− flu tumor uptake [1]: 1.50 ± 0.71 % ID/g
PSMA^− flu tumor uptake [2]: 0.46 ± 0.06 % ID/g
PSMA^− flu tumor uptake [3]: 0.21 ± 0.06 % ID/g
PSMA^− flu tumor uptake [4]: 0.21 ± 0.17 % ID/g
